Laboratory results taken from patent US20240002391A1, “4-ALKOXYPYRROLO[2,1-F][1,2,4]TRIAZINES AND PREPARATION AND USES THEREOF” (BioSplice Therapeutics, Inc., priority 2022, published 2024).

Target: recombinant DYRK1A kinase (Homo sapiens (Human), UniProt Q13627)
Assay: DYRK1A kinase assay (Ser/Thr 18 peptide Z-lyte FRET)
Type: biochemical
Settings: DYRK1A kinase activity, Z-lyte Ser/Thr 18 peptide, 15 μM ATP; method text calls the value IC50; read-out: EC50 (the source's name)
Summary of the method: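 Steps: combine 0.25 μg/mL kinase, 15 μM ATP and 4 μM peptide with test compound; incubate 1 h at room temperature; add diluted development reagent for another hour; read coumarin and fluorescein emission at Ex 400. The emission ratio yields percent phosphorylation, from which IC50 is derived.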

COc1nc(N[C@H]2CCN(C3COC3)CC2(F)F)nn2ccc(-c3ccc4ncccc4c3)c12 [Compound 322, (S)—N-(3,3-Difluoro-1-(oxetan-3-yl)piperidin-4-yl)-4-methoxy-5-(quinolin-6-yl)pyrrolo[2,1-f][1,2,4]triazin-2-amine] and COc1nc(NC2CCC3(CC2)COC3)nn2ccc(-c3ccc4ncccc4c3)c12 [Compound 326, 4-Methoxy-5-(quinolin-6-yl)-N-(2-oxaspiro[3.5]nonan-7-yl)pyrrolo[2,1-f][1,2,4]triazin-2-amine] are within 1.5-fold of each other in IC50: 6.6 nM for the first, 7.3 nM for the second.

Going from COc1nc(N[C@H]2C[C@H](C(C)(C)O)C2)nn2ccc(-c3ccc4nccnc4c3)c12 [Compound 328, 2-(trans-3-((4-Methoxy-5-(quinoxalin-6-yl)pyrrolo[2,1-f][1,2,4]triazin-2-yl)amino)cyclobutyl)propan-2-ol] to COc1nc(N[C@H]2CC[C@@H](C(C)(C)O)CC2)nn2ccc(-c3ccc4nccnc4c3)c12 [Compound 341, 2-(cis-4-((4-methoxy-5-(quinoxalin-6-yl)pyrrolo[2,1-f][1,2,4]triazin-2-yl)amino)cyclohexyl)propan-2-ol], the IC50 rises from 5.4 nM to 9.3 nM (1.7-fold).

First: COc1nc(N[C@H]2C[C@@H](OCCO)C2)nn2ccc(-c3ccc4nccnc4c3)c12 [Compound 329, 2-(cis-3-((4-Methoxy-5-(quinoxalin-6-yl)pyrrolo[2,1-f][1,2,4]triazin-2-yl)amino)cyclobutoxy)ethan-1-ol]
Second: COc1nc(N[C@H]2CC[C@@H](OCCO)CC2)nn2ccc(-c3ccc4nccnc4c3)c12 [Compound 343, 2-((cis-4-((4-Methoxy-5-(quinoxalin-6-yl)pyrrolo[2,1-f][1,2,4]triazin-2-yl)amino)cyclohexyl)oxy)ethan-1-ol]
The IC50 of the first is 2.7-fold higher: 1.9 nM for the first, 0.7 nM for the second. The second is the more potent here.

COc1nc(N[C@H]2C[C@](C)(O)C2)nn2ccc(-c3ccc4nccnc4c3)c12 [Compound 330, trans-3-((4-Methoxy-5-(quinoxalin-6-yl)pyrrolo[2,1-f][1,2,4]triazin-2-yl)amino)-1-methylcyclobutan-1-ol] and COc1nc(N[C@H]2C[C@@](C)(N)C2)nn2ccc(-c3ccc4nccnc4c3)c12 [Compound 332, cis-N1-(4-Methoxy-5-(quinoxalin-6-yl)pyrrolo[2,1-f][1,2,4]triazin-2-yl)-3-methylcyclobutane-1,3-diamine] are within 1.5-fold of each other in IC50: 2.3 nM for the first, 2.8 nM for the second.

First: [2H]C([2H])([2H])Oc1nc(N[C@H]2C[C@](C)(O)C2)nn2ccc(-c3ccc4nccnc4c3)c12 [Compound 331, trans-3-((4-(Methoxy-d3)-5-(quinoxalin-6-yl)pyrrolo[2,1-f][1,2,4]triazin-2-yl)amino)-1-methylcyclobutan-1-ol]
Second: [2H]C([2H])([2H])Oc1nc(N[C@H]2CC[C@](C)(O)CC2)nn2ccc(-c3ccc4nccnc4c3)c12 [Compound 348, trans-4-((4-(Methoxy-d3)-5-(quinoxalin-6-yl)pyrrolo[2,1-f][1,2,4]triazin-2-yl)amino)-1-methylcyclohexan-1-ol]
The IC50 of the first is 1.9-fold lower: 1.2 nM for the first, 2.3 nM for the second. The first is the more potent here.

COc1nc(N[C@H]2C[C@@](C)(NC(C)=O)C2)nn2ccc(-c3ccc4nccnc4c3)c12 [Compound 333, N-(cis-3-((4-Methoxy-5-(quinoxalin-6-yl)pyrrolo[2,1-f][1,2,4]triazin-2-yl)amino)-1-methylcyclobutyl)acetamide] and COc1nc(N[C@H]2C[C@](C)(NC(C)=O)C2)nn2ccc(-c3ccc4nccnc4c3)c12 [Compound 334, N-(trans-3-((4-Methoxy-5-(quinoxalin-6-yl)pyrrolo[2,1-f][1,2,4]triazin-2-yl)amino)-1-methylcyclobutyl)acetamide] are within 1.5-fold of each other in IC50: 1.1 nM for the first, 0.9 nM for the second.

First: CCC(=O)N[C@]1(C)C[C@H](Nc2nc(OC)c3c(-c4ccc5nccnc5c4)ccn3n2)C1 [Compound 335, N-(cis-3-((4-Methoxy-5-(quinoxalin-6-yl)pyrrolo[2,1-f][1,2,4]triazin-2-yl)amino)-1-methylcyclobutyl)propionamide]
Second: COCC(=O)N[C@]1(C)C[C@H](Nc2nc(OC)c3c(-c4ccc5nccnc5c4)ccn3n2)C1 [Compound 336, 2-Methoxy-N-(cis-3-((4-methoxy-5-(quinoxalin-6-yl)pyrrolo[2,1-f][1,2,4]triazin-2-yl)amino)-1-methylcyclobutyl)acetamide]
The IC50 of the first is 1.5-fold higher: 2 nM for the first, 1.3 nM for the second.

Compared with COc1nc(N[C@H]2C[C@@](C)(NC(=O)OC(C)(C)C)C2)nn2ccc(-c3ccc4nccnc4c3)c12 [Compound 337, tert-Butyl (cis-3-((4-methoxy-5-(quinoxalin-6-yl)pyrrolo[2,1-f][1,2,4]triazin-2-yl)amino)-1-methylcyclobutyl)carbamate], CNC(=O)[C@]1(C)C[C@@H](Nc2nc(OC)c3c(-c4ccc5nccnc5c4)ccn3n2)C1 [Compound 338, trans-3-((4-Methoxy-5-(quinoxalin-6-yl)pyrrolo[2,1-f][1,2,4]triazin-2-yl)amino)-N,1-dimethylcyclobutane-1-carboxamide] is 9.6-fold lower in IC50: 11.5 nM for the first, 1.2 nM for the second.

COc1nc(N[C@H]2C[C@](C)(C(=O)N(C)C)C2)nn2ccc(-c3ccc4nccnc4c3)c12 [Compound 339, trans-3-((4-Methoxy-5-(quinoxalin-6-yl)pyrrolo[2,1-f][1,2,4]triazin-2-yl)amino)-N,N,1-trimethylcyclobutane-1-carboxamide] and COc1nc(N[C@H]2CC[C@@](C)(O)CC2)nn2ccc(-c3ccc4nccnc4c3)c12 [Compound 345, cis-4-((4-Methoxy-5-(quinoxalin-6-yl)pyrrolo[2,1-f][1,2,4]triazin-2-yl)amino)-1-methylcyclohexan-1-ol] are within 1.5-fold of each other in IC50: 4.8 nM for the first, 3.7 nM for the second.

Going from COc1nc(N[C@H]2CC[C@H](C(C)(C)O)CC2)nn2ccc(-c3ccc4nccnc4c3)c12 [Compound 342, 2-(trans-4-((4-Methoxy-5-(quinoxalin-6-yl)pyrrolo[2,1-f][1,2,4]triazin-2-yl)amino)cyclohexyl)propan-2-ol] to COc1nc(N[C@H]2CC[C@H](NC(C)=O)CC2)nn2ccc(-c3ccc4nccnc4c3)c12 [Compound 344, N-(trans-4-((4-Methoxy-5-(quinoxalin-6-yl)pyrrolo[2,1-f][1,2,4]triazin-2-yl)amino)cyclohexyl)acetamide], the IC50 falls from 3.2 nM to 1.8 nM (1.8-fold). The second is the more potent here.

Compared with C[C@]1(O)CC[C@H](Nc2nc(O)c3c(-c4ccc5nccnc5c4)ccn3n2)CC1 [Compound 346, 2-((trans-4-Hydroxy-4-methylcyclohexyl)amino)-5-(quinoxalin-6-yl)pyrrolo[2,1-f][11,2,4]triazin-4-ol], COc1nc(N[C@H]2CC[C@](C)(O)CC2)nn2ccc(-c3ccc4nccnc4c3)c12 [Compound 347, trans-4-((4-Methoxy-5-(quinoxalin-6-yl)pyrrolo[2,1-f][1,2,4]triazin-2-yl)amino)-1-methylcyclohexan-1-ol] is 20-fold lower in IC50: 34.4 nM for the first, 1.7 nM for the second. The second is the more potent here.

First: COc1nc(N[C@H]2CC[C@@](O)(C(F)(F)F)CC2)nn2ccc(-c3ccc4nccnc4c3)c12 [Compound 349, trans-4-((4-Methoxy-5-(quinoxalin-6-yl)pyrrolo[2,1-f][1,2,4]triazin-2-yl)amino)-1-(trifluoromethyl)cyclohexan-1-ol]
Second: COc1nc(NC2CCN(CC(F)(F)F)CC2)nn2ccc(-c3ccc4nccnc4c3)c12 [Compound 363, 4-Methoxy-5-(quinoxalin-6-yl)-N-(1-(2,2,2-trifluoroethyl)piperidin-4-yl)pyrrolo[2,1-f][1,2,4]triazin-2-amine]
The IC50 of the first is 6.1-fold lower: 6.6 nM for the first, 40.1 nM for the second.

Compared with COc1nc(N[C@@H]2CN(C)C[C@@H]2F)nn2ccc(-c3ccc4nccnc4c3)c12 [Compound 350, N-((3R,4S)-4-Fluoro-1-methylpyrrolidin-3-yl)-4-methoxy-5-(quinoxalin-6-yl)pyrrolo[2,1-f][1,2,4]triazin-2-amine], COc1nc(N[C@H]2CN(C)C[C@H]2F)nn2ccc(-c3ccc4nccnc4c3)c12 [Compound 351, N-((3S,4R)-4-Fluoro-1-methylpyrrolidin-3-yl)-4-methoxy-5-(quinoxalin-6-yl)pyrrolo[2,1-f][1,2,4]triazin-2-amine] is 5.8-fold higher in IC50: 1.4 nM for the first, 8.1 nM for the second.

[2H]C([2H])([2H])Oc1nc(N[C@@H]2CN(C(C)=O)C[C@@H]2F)nn2ccc(-c3ccc4nccnc4c3)c12 [Compound 353, 1-((3S,4R)-3-Fluoro-4-((4-(methoxy-d3)-5-(quinoxalin-6-yl)pyrrolo[2,1-f][1,2,4]triazin-2-yl)amino)pyrrolidin-1-yl)ethan-1-one] and COc1nc(N[C@@H]2CCN(C)C[C@@H]2F)nn2ccc(-c3ccc4nccnc4c3)c12 [Compound 367, N-((3S,4R)-3-Fluoro-1-methylpiperidin-4-yl)-4-methoxy-5-(quinoxalin-6-yl)pyrrolo[2,1-f][1,2,4]triazin-2-amine] are within 1.5-fold of each other in IC50: 2.2 nM for the first, 3.3 nM for the second.

First: COc1nc(N[C@@H]2CN(C3COC3)C[C@@H]2F)nn2ccc(-c3ccc4nccnc4c3)c12 [Compound 355, N-((3R,4S)-4-Fluoro-1-(oxetan-3-yl)pyrrolidin-3-yl)-4-methoxy-5-(quinoxalin-6-yl)pyrrolo[2,1-f][1,2,4]triazin-2-amine]
Second: COc1nc(N[C@H]2CN(C3COC3)C[C@H]2F)nn2ccc(-c3ccc4nccnc4c3)c12 [Compound 356, N-((3S,4R)-4-Fluoro-1-(oxetan-3-yl)pyrrolidin-3-yl)-4-methoxy-5-(quinoxalin-6-yl)pyrrolo[2,1-f][1,2,4]triazin-2-amine]
The IC50 of the first is 3.3-fold lower: 2.7 nM for the first, 8.8 nM for the second. The first is the more potent here.

First: COc1nc(NC2CCN(CC(F)F)CC2)nn2ccc(-c3ccc4nccnc4c3)c12 [Compound 362, N-(1-(2,2-Difluoroethyl)piperidin-4-yl)-4-methoxy-5-(quinoxalin-6-yl)pyrrolo[2,1-f][1,2,4]triazin-2-amine]
Second: COc1nc(NC2CCN(C3COC3)CC2)nn2ccc(-c3ccc4nccnc4c3)c12 [Compound 365, 4-Methoxy-N-(1-(oxetan-3-yl)piperidin-4-yl)-5-(quinoxalin-6-yl)pyrrolo[2,1-f][1,2,4]triazin-2-amine]
The IC50 of the first is 2.1-fold higher: 6 nM for the first, 2.8 nM for the second. The second is the more potent here.

COc1nc(NC2CCOCC2)nn2ccc(-c3ccc4nccnc4c3)c12 [Compound 366, 4-Methoxy-5-(quinoxalin-6-yl)-N-(tetrahydro-2H-pyran-4-yl)pyrrolo[2,1-f][1,2,4]triazin-2-amine] gave an IC50 of 2.5 nM.
